Columns and labels:
[1] = molecular target: Proto-oncogene tyrosine-protein kinase Src (Homo sapiens) (UniProt P12931); assay: cSRC (h) Upstate kinase activity assay; details: Compound concentration 10.0 uM
[2] = molecular target: T1, Protein kinase C epsilon type (Homo sapiens) (UniProt Q02156); assay: PKCepsilon (h) Upstate kinase activity assay; details: Compound concentration 10.0 uM
T1 sequence (whole entry): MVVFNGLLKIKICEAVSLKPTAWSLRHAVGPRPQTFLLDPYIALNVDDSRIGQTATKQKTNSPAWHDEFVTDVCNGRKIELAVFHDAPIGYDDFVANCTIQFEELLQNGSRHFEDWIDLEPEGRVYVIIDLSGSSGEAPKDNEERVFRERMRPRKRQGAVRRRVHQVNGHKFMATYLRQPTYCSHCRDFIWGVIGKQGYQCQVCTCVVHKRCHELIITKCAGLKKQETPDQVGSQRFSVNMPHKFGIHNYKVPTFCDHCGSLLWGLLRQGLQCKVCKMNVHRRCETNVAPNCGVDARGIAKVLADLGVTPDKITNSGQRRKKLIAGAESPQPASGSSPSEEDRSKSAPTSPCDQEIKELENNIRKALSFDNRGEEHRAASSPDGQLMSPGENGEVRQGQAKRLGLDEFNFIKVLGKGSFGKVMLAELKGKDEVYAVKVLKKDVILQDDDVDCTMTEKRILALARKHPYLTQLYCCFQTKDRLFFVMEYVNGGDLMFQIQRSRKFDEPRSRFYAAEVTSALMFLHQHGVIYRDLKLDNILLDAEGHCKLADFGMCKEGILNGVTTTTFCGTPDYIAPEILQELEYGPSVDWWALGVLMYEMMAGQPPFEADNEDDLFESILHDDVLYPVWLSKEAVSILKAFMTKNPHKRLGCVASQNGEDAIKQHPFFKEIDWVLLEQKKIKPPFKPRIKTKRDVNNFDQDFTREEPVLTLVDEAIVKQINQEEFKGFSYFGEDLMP

[3] = molecular target: T2, Serine/threonine-protein kinase D1 (Homo sapiens) (UniProt Q15139); assay: PKCmu (h) Upstate kinase activity assay; details: Compound concentration 10.0 uM
T2 sequence (whole entry): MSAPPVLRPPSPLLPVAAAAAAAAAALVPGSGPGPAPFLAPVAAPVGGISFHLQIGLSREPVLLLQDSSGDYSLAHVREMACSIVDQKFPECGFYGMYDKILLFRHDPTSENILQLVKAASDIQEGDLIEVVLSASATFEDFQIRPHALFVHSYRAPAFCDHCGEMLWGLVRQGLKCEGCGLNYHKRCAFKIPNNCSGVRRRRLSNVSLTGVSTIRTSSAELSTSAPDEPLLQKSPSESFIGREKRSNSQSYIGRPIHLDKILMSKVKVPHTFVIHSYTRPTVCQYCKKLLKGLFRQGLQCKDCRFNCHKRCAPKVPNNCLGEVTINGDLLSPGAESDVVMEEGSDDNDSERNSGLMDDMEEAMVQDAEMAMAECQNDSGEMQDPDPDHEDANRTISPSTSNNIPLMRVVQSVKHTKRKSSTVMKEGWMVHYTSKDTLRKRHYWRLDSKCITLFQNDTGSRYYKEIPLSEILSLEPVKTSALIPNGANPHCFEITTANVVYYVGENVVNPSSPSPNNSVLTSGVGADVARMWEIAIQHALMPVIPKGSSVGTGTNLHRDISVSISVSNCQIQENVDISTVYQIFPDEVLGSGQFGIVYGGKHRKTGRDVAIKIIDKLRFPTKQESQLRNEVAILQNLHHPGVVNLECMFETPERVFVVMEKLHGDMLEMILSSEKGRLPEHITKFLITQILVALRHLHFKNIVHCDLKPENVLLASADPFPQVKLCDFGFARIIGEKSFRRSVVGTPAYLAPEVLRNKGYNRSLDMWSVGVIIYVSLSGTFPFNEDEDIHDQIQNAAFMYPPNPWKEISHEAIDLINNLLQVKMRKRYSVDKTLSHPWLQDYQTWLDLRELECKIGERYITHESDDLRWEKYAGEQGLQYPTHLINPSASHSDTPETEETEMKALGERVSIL

[4] = molecular target: Protein kinase C gamma type (Homo sapiens) (UniProt P05129); assay: PKCgamma (h) Upstate kinase activity assay; details: Compound concentration 10.0 uM
PANC-1 = assay: Pancreas PANC-1 cell line MDS Pharma Services Proliferation Assay; format: functional, cell-based, Homo sapiens
[5] = molecular target: Proto-oncogene tyrosine-protein kinase receptor Ret (Homo sapiens) (UniProt P07949); assay: Ret (h) Upstate kinase activity assay; details: Compound concentration 10.0 uM
HT-29 = assay: Colon HT-29 cell line MDS Pharma Services Proliferation Assay; format: functional, cell-based, Homo sapiens
[6] = molecular target: Mitogen-activated protein kinase 11 (Homo sapiens) (UniProt Q15759); assay: SAPK2b (h) Upstate kinase activity assay; details: Compound concentration 10.0 uM
SK-MEL-5 = assay: Melanoma SK-MEL-5 cell line MDS Pharma Services Proliferation Assay; format: functional, cell-based, Homo sapiens
[7] = molecular target: RAC-beta serine/threonine-protein kinase (Homo sapiens) (UniProt P31751); assay: PKBbeta (h) Upstate kinase activity assay; details: Compound concentration 10.0 uM
[8] = molecular target: Cyclin-dependent kinase 2/cyclin E (Homo sapiens) (UniProt P24864+P24941+O96020); assay: CDK2/ cyclin E (h) Upstate kinase activity assay; format: protein-complex assay; details: Compound concentration 10.0 uM
[9] = molecular target: Tyrosine-protein kinase Lck (Homo sapiens) (UniProt P06239); assay: Lck (h) Upstate kinase activity assay; details: Compound concentration 10.0 uM
Sequence of Tyrosine-protein kinase Lck (Homo sapiens) (P06239 2-509 limits assumed): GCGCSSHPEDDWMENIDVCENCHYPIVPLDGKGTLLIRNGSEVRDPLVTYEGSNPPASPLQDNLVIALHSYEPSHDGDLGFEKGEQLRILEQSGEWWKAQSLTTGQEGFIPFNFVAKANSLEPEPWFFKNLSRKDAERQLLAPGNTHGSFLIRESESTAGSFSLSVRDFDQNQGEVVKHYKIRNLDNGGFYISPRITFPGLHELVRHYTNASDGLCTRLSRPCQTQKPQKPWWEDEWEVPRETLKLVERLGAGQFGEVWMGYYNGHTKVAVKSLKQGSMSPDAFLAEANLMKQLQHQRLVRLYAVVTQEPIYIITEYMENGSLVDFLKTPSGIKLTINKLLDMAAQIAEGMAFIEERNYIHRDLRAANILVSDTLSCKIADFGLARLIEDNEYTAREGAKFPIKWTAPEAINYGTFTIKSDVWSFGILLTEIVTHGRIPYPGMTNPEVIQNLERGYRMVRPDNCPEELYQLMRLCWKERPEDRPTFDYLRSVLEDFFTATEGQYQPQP

Sequence of Mitogen-activated protein kinase 11 (Homo sapiens) (Q15759 whole entry): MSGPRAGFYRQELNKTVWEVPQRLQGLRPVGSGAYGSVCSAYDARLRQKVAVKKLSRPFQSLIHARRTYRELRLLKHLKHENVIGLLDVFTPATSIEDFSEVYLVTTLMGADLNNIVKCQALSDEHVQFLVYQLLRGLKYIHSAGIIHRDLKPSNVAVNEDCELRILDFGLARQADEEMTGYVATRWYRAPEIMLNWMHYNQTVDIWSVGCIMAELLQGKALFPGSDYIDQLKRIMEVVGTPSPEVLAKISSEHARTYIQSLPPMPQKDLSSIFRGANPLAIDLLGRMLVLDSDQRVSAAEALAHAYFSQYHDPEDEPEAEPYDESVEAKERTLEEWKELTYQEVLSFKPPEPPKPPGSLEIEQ
Sequence of Proto-oncogene tyrosine-protein kinase receptor Ret (Homo sapiens) (P07949 whole entry): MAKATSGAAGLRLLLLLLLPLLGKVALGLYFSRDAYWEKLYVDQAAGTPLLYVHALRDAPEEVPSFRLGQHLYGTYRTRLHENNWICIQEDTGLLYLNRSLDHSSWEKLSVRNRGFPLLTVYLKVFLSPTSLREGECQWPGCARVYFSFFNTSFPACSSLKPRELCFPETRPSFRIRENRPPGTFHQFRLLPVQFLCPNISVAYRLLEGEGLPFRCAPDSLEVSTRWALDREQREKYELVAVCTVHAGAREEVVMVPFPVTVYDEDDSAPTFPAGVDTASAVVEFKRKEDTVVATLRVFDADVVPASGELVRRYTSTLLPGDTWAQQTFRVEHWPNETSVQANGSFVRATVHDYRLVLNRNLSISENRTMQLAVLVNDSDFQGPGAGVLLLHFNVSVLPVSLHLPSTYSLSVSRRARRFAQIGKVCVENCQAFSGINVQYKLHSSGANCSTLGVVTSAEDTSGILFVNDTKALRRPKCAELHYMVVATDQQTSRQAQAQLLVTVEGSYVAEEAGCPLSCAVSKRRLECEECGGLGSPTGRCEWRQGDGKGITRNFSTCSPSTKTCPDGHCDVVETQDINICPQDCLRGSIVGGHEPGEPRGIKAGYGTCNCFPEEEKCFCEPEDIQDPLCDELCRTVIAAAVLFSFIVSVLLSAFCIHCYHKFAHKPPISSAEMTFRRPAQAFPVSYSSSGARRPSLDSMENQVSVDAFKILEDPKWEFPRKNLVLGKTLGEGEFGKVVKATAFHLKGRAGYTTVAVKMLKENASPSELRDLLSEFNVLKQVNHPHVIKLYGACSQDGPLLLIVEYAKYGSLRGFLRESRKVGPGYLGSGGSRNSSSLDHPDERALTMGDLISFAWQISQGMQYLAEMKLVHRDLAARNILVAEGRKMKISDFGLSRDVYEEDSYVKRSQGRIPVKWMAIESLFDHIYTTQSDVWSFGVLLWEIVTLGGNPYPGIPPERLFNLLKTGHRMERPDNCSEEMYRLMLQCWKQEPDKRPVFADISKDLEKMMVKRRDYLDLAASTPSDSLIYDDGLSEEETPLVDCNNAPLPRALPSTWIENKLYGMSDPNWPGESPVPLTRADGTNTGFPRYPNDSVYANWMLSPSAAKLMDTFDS
Sequence of Proto-oncogene tyrosine-protein kinase Src (Homo sapiens) (P12931 2-536 limits assumed): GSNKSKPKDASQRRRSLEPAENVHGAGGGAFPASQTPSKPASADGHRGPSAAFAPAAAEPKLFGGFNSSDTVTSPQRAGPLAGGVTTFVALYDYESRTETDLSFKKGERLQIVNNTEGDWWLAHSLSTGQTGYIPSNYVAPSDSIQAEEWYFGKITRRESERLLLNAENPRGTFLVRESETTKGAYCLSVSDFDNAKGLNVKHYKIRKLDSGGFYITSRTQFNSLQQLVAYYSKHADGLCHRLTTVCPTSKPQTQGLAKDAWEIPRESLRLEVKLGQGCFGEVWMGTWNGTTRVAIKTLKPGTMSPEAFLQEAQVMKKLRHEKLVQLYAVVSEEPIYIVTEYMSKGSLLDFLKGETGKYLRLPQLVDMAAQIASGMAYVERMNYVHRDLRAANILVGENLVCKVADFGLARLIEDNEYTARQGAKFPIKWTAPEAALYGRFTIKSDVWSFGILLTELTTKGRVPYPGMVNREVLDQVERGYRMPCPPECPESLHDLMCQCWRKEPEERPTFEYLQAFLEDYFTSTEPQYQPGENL
Sequence of RAC-beta serine/threonine-protein kinase (Homo sapiens) (P31751 whole entry): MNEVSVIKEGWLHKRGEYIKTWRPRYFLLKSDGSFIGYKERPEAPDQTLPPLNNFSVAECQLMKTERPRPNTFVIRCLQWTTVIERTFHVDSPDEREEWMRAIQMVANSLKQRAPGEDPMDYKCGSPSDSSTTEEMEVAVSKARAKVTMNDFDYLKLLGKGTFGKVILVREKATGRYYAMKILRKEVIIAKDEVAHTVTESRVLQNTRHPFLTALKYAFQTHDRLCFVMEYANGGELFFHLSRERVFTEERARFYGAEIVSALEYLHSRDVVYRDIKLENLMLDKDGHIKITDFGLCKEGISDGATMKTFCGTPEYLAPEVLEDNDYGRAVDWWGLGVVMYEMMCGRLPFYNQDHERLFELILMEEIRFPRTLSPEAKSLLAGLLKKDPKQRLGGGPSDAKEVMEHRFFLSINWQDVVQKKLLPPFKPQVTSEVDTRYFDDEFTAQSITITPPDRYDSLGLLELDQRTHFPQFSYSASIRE

SMILES: Cc1c[nH]c2nccc(Oc3c(F)cc(Nc4cc(Cl)nc(N)n4)cc3F)c12 [BAY-549]
- inhibition [1]: -4%
- inhibition [2]: 28%
- inhibition [3]: 60%
- inhibition [4]: 33%
- TGI (PANC-1; Homo sapiens, PANC-1): 45 µM
- CC50 (PANC-1; Homo sapiens, PANC-1, read-out: LC50 (the source's name)): > 100 µM
- Mean % growth (n = 2) for 10.0 µM probe concentration (PANC-1; ± SEM 1 % growth): 55%
- Mean % growth (n = 2) for 1.0 µM probe concentration (PANC-1; ± SEM 2 % growth): 87%
- Mean % growth (n = 2) for 0.1 µM probe concentration (PANC-1; ± SEM 3 % growth): 86%
- Mean % growth (n = 2) for 0.01 µM probe concentration (PANC-1; ± SEM 8 % growth): 98%
- Mean % growth (n = 2) for 100.0 µM probe concentration (PANC-1; ± SEM 9 % growth): -31%
- inhibition [5]: 52%
- IC50 (HT-29; Homo sapiens, HT-29): 2.9 µM
- TGI (HT-29; Homo sapiens, HT-29): 19 µM
- CC50 (HT-29; Homo sapiens, HT-29, read-out: LC50 (the source's name)): > 100 µM
- Mean % growth (n = 2) for 0.1 µM probe concentration (HT-29; ± SEM 1 % growth): 95%
- Mean % growth (n = 2) for 1.0 µM probe concentration (HT-29; ± SEM 1 % growth): 75%
- Mean % growth (n = 2) for 10.0 µM probe concentration (HT-29; ± SEM 4 % growth): 10%
- Mean % growth (n = 2) for 0.01 µM probe concentration (HT-29; ± SEM 8 % growth): 100%
- Mean % growth (n = 2) for 100.0 µM probe concentration (HT-29; ± SEM 9 % growth): -38%
- inhibition [6]: 1%
- IC50 (SK-MEL-5; Homo sapiens, SK-MEL-5): 16 µM
- TGI (SK-MEL-5; Homo sapiens, SK-MEL-5): 50 µM
- CC50 (SK-MEL-5; Homo sapiens, SK-MEL-5, read-out: LC50 (the source's name)): > 100 µM
- Mean % growth (n = 2) for 100.0 µM probe concentration (SK-MEL-5; ± SEM 1 % growth): -32%
- Mean % growth (n = 2) for 0.01 µM probe concentration (SK-MEL-5; ± SEM 3 % growth): 106%
- Mean % growth (n = 2) for 1.0 µM probe concentration (SK-MEL-5; ± SEM 3 % growth): 98%
- Mean % growth (n = 2) for 10.0 µM probe concentration (SK-MEL-5; ± SEM 6 % growth): 65%
- Mean % growth (n = 2) for 0.1 µM probe concentration (SK-MEL-5; ± SEM 8 % growth): 89%
- inhibition [7]: 85%
- inhibition [8]: 40%
- inhibition [9]: 50%
